Data published in article PMC9226124, “Macrocycle-stabilization of its interaction with 14-3-3 increases plasma membrane localization and activity of CFTR” (Nature Communications, 2022).
“And” between values parts separate entries of the source, which are not always exact repeats. Equal values may be shown once. One block for each compound: values may come before it.

Columns and labels:
[1] = target: T1, 14-3-3β/CFTRpS753pS768 complex (Homo sapiens, UniProt P13569+P31946); assay: Dose-response fluorescence polarization (FP) assay, compound titration; format: binding; conditions: for FP signal: With 14-3-3; for Polarization, background subtracted: 14-3-3 10 μM, peptide 100 nM, replicates
T1 construct: His6 (cleaved yes); made in house; peptide synthetic
Method: The 14-3-3β concentration used for the FP screening assay was 10 μM (dashed line). c HTS FP assay of the Cyclenium library. The samples contain 100 nM of FITC-CFTR_pS753pS768 peptide, 10 μM 14-3-3β, and 50 μM compound. FC-A (100 µM) was added as a positive control and DMSO as the negative control. Hit compounds are defined as a polarization increase which is higher than 20% of the response of FC-A. Red squares are compounds that appeared positive in the negative control without 14-3-3. […] Background polarization was subtracted from all values, n = 3 technical replicates. Compounds selected for further analysis are indicated with an asterisk. e Polarization in the absence of 14-3-3. […] Source data are provided as a Source Data file. […]
(§1) The FITC-labeled peptides were dissolved in FP buffer (10 mM HEPES pH 7.4, 150 mM NaCl, 0.1% Tween20, 1 mg/mL BSA) to a final concentration of 100 nM or 10 nM. For the dose-response assays, a 14-3-3β concentration of 10 μM was used while titrating the compounds in a two-times dilution series and, for the other assays, a dilution series of 14-3-3β was made with constant concentration of compound. The dilution series were made in 384 Corning Black Round Bottom well plates and their polarization was measured with a Tecan Infinite F500 plate reader (ex. = 485 nm, em. = 535 nm). The method of fitting of the curves was: “log(agonist) vs. response – Variable slope (four parameters)” from GraphPad Prism. The equation is Y = Bottom + (Top-Bottom)/(1 + 10^((LogEC50-X)*HillSlope)).

[2] = target: T2, FITC-labeled CFTRpS753pS768 peptide (no 14-3-3) (Homo sapiens, UniProt P13569); assay: Dose-response FP control assay in the absence of 14-3-3; format: binding; conditions: for FP signal: No 14-3-3; for Polarization in the absence of 14-3-3, background subtracted: replicates
T2 construct: made in house; host or cells: synthetic peptide
Method: The 14-3-3β concentration used for the FP screening assay was 10 μM (dashed line). c HTS FP assay of the Cyclenium library. The samples contain 100 nM of FITC-CFTR_pS753pS768 peptide, 10 μM 14-3-3β, and 50 μM compound. FC-A (100 µM) was added as a positive control and DMSO as the negative control. Hit compounds are defined as a polarization increase which is higher than 20% of the response of FC-A. Red squares are compounds that appeared positive in the negative control without 14-3-3. […] Background polarization was subtracted from all values, n = 3 technical replicates. Compounds selected for further analysis are indicated with an asterisk. e Polarization in the absence of 14-3-3. […] Source data are provided as a Source Data file.
as §1

T2 sequence (P13569 747-774 limits assumed): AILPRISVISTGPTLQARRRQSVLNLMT
T1 sequence (P31946 whole entry): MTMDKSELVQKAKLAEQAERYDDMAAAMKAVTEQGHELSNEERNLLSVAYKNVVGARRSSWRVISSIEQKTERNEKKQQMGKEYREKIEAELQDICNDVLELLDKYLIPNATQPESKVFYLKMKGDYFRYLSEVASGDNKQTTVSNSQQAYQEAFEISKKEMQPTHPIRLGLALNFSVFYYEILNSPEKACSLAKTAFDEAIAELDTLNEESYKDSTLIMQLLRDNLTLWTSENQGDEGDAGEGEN

EC50 ([1]; 14-3-3β 10 μM, labeled CFTRpS753pS768 100 nM): False positive
FP signal ([1]; compound 338.6 pM): 2
FP signal ([1]; compound 677.1 pM): 4
FP signal ([1]; compound 1.35422e-9 M): 3
FP signal ([1]; compound 2.70843e-9 M): 4
FP signal ([1]; compound 5.41687e-9 M): 4
FP signal ([1]; compound 1.08337e-8 M): 2
FP signal ([1]; compound 2.16675e-8 M): 4
FP signal ([1]; compound 4.3335e-8 M): 3
FP signal ([1]; compound 8.66699e-8 M): 2
FP signal ([1]; compound 1.7334e-7 M): 4
FP signal ([1]; compound 3.4668e-7 M): 4
FP signal ([1]; compound 6.93359e-7 M): 5
FP signal ([1]; compound 1.38672e-6 M): 7
FP signal ([1]; compound 2.77344e-6 M): 8
FP signal ([1]; compound 5.54688e-6 M): 14
FP signal ([1]; compound 1.10938e-5 M): 24
FP signal ([1]; compound 2.21875e-5 M): 49
FP signal ([1]; compound 4.4375e-5 M): 80
FP signal ([1]; compound 8.875e-5 M): 145
FP signal ([1]; compound 0.0001775 M): 211
FP signal ([1]; compound 0.000355 M): 249
FP signal ([1]; compound 0.00071 M): 275
FP signal ([2]; compound 338.6 pM): 2
FP signal ([2]; compound 677.1 pM): 4
FP signal ([2]; compound 1.35422e-9 M): 3
FP signal ([2]; compound 2.70843e-9 M): 4
FP signal ([2]; compound 5.41687e-9 M): 4
FP signal ([2]; compound 1.08337e-8 M): 2
FP signal ([2]; compound 2.16675e-8 M): 4
FP signal ([2]; compound 4.3335e-8 M): 3
FP signal ([2]; compound 8.66699e-8 M): 2
FP signal ([2]; compound 1.7334e-7 M): 4
FP signal ([2]; compound 3.4668e-7 M): 4
FP signal ([2]; compound 6.93359e-7 M): 5
FP signal ([2]; compound 1.38672e-6 M): 7
FP signal ([2]; compound 2.77344e-6 M): 8
FP signal ([2]; compound 5.54688e-6 M): 14
FP signal ([2]; compound 1.10938e-5 M): 24
FP signal ([2]; compound 2.21875e-5 M): 49
FP signal ([2]; compound 4.4375e-5 M): 80
FP signal ([2]; compound 8.875e-5 M): 145
FP signal ([2]; compound 0.0001775 M): 211
FP signal ([2]; compound 0.000355 M): 249
FP signal ([2]; compound 0.00071 M): 275
SMILES: N=C(N)NCCCC1NC(=O)C(Cc2ccccc2)NC(=O)C2(CCC(c3ccccc3)CC2)NCc2cccc(c2)-c2ccccc2CNC(=O)C(Cc2c[nH]c3ccccc23)NC1=O (stereo not drawn) [CY007183]

Polarization, background subtracted ([1]; compound 7.8125e-7 M): 3.967 and 7.467 and 1.967
Polarization, background subtracted ([1]; compound 1.5625e-6 M): 3.067 and 3.467 and 2.467
Polarization, background subtracted ([1]; compound 3.125e-6 M): 6.467 and 6.067 and 3.767
Polarization, background subtracted ([1]; compound 6.25e-6 M): 9.367 and 10.5667 and 10.2667
Polarization, background subtracted ([1]; compound 1.25e-5 M): 21.1667 and 31.0667 and 29.9667
Polarization, background subtracted ([1]; compound 2.5e-5 M): 47.8667 and 51.0667 and 48.4667
Polarization, background subtracted ([1]; compound 5e-5 M): 75.6667 and 90.6667 and 83.6667
Polarization, background subtracted ([1]; compound 0.0001 M): 125.667 and 143.267 and 127.367
Polarization in the absence of 14-3-3, background subtracted ([2]; compound 7.8125e-7 M): 1.267 and 1.067 and 0.9667
Polarization in the absence of 14-3-3, background subtracted ([2]; compound 1.5625e-6 M): 0.5667 and 0.1667 and -0.03333
Polarization in the absence of 14-3-3, background subtracted ([2]; compound 3.125e-6 M): 1.367 and 2.667 and 1.467
Polarization in the absence of 14-3-3, background subtracted ([2]; compound 6.25e-6 M): 1.367 and 2.167 and 2.967
Polarization in the absence of 14-3-3, background subtracted ([2]; compound 1.25e-5 M): 6.867 (2×) and 8.667
Polarization in the absence of 14-3-3, background subtracted ([2]; compound 2.5e-5 M): 12.7667 and 12.6667 and 13.5667
Polarization in the absence of 14-3-3, background subtracted ([2]; compound 5e-5 M): 29.6667 and 26.2667 and 32.2667
Polarization in the absence of 14-3-3, background subtracted ([2]; compound 0.0001 M): 49.4667 and 44.0667 and 55.9667
SMILES: NCCCC1NCc2ccccc2Sc2ccccc2CNC(=O)C(Cc2c[nH]c3ccccc23)NC(=O)C(Cc2ccccc2)NC1=O (stereo not drawn) [CY000970]

Polarization, background subtracted ([1]; compound 7.8125e-7 M): -1.033 and -2.233 and -1.933
Polarization, background subtracted ([1]; compound 1.5625e-6 M): -4.033 and -5.333 and -2.333
Polarization, background subtracted ([1]; compound 3.125e-6 M): -5.033 (2×) and -4.933
Polarization, background subtracted ([1]; compound 6.25e-6 M): -4.133 and -2.733 and -3.633
Polarization, background subtracted ([1]; compound 1.25e-5 M): 1.867 and 3.867 and 0.9667
Polarization, background subtracted ([1]; compound 2.5e-5 M): 13.4667 and 18.8667 and 13.1667
Polarization, background subtracted ([1]; compound 5e-5 M): 40.8667 and 54.6667 and 41.6667
Polarization, background subtracted ([1]; compound 0.0001 M): 97.2667 and 108.167 and 99.8667
Polarization in the absence of 14-3-3, background subtracted ([2]; compound 7.8125e-7 M): 0.06667 and 0.2667 and -0.03333
Polarization in the absence of 14-3-3, background subtracted ([2]; compound 1.5625e-6 M): -0.3333 and -0.6333 (2×)
Polarization in the absence of 14-3-3, background subtracted ([2]; compound 3.125e-6 M): -0.6333 and 0.1667 and -0.7333
Polarization in the absence of 14-3-3, background subtracted ([2]; compound 6.25e-6 M): -1.333 (2×) and -0.9333
Polarization in the absence of 14-3-3, background subtracted ([2]; compound 1.25e-5 M): 0.06667 and -0.2333 and 0.1667
Polarization in the absence of 14-3-3, background subtracted ([2]; compound 2.5e-5 M): -0.8333 and -1.033 and -0.2333
Polarization in the absence of 14-3-3, background subtracted ([2]; compound 5e-5 M): -0.3333 and 0.2667 (2×)
Polarization in the absence of 14-3-3, background subtracted ([2]; compound 0.0001 M): 0.2667 and 1.467 and 3.067
SMILES: NCCCC1NC(=O)C(Cc2ccc(-c3ccccc3)cc2)NCc2ccccc2Sc2ccccc2CNC1=O (stereo not drawn) [CY001110]

SMILES: N=C(N)NCCCC1NC(=O)C(CCC(N)=O)NC(=O)C(CCCNC(=N)N)NC(=O)C2CCCN2Cc2cccc(c2)-c2ccccc2CNC1=O (stereo not drawn) [CY002028]
Polarization, background subtracted ([1]; compound 7.8125e-7 M): 0.5667 and 1.267 and 0.8667
Polarization, background subtracted ([1]; compound 1.5625e-6 M): 0.6667 and -0.1333 and 0.5667
Polarization, background subtracted ([1]; compound 3.125e-6 M): 1.867 (2×) and 1.167
Polarization, background subtracted ([1]; compound 6.25e-6 M): 2.367 and 1.667 and 2.767
Polarization, background subtracted ([1]; compound 1.25e-5 M): 6.467 and 4.967 and 7.667
Polarization, background subtracted ([1]; compound 2.5e-5 M): 12.9667 and 10.8667 and 4.867
Polarization, background subtracted ([1]; compound 5e-5 M): 26.7667 and 22.8667 and 21.6667
Polarization, background subtracted ([1]; compound 0.0001 M): 66.6667 and 58.4667 and 74.5667
Polarization in the absence of 14-3-3, background subtracted ([2]; compound 7.8125e-7 M): 1.367 and 0.8667 and 0.4667
Polarization in the absence of 14-3-3, background subtracted ([2]; compound 1.5625e-6 M): 0.5667 and -0.1333 and 0.4667
Polarization in the absence of 14-3-3, background subtracted ([2]; compound 3.125e-6 M): 0.3667 (2×) and 0.6667
Polarization in the absence of 14-3-3, background subtracted ([2]; compound 6.25e-6 M): 0.2667 and -0.5333 and 0.6667
Polarization in the absence of 14-3-3, background subtracted ([2]; compound 1.25e-5 M): -1.933 and 1.467 and 1.267
Polarization in the absence of 14-3-3, background subtracted ([2]; compound 2.5e-5 M): 1.367 (2×) and 1.467
Polarization in the absence of 14-3-3, background subtracted ([2]; compound 5e-5 M): 3.267 and 3.467 and 4.467
Polarization in the absence of 14-3-3, background subtracted ([2]; compound 0.0001 M): 7.867 and 8.067 and 8.267
